Where only a bound is given, the exact number is not on record here.

The target of this assay is T1, porcine pancreatic lipase (Sus scrofa, UniProt P00591).
T1 construct: purchased Sigma
T1 sequence (P00591 1-450): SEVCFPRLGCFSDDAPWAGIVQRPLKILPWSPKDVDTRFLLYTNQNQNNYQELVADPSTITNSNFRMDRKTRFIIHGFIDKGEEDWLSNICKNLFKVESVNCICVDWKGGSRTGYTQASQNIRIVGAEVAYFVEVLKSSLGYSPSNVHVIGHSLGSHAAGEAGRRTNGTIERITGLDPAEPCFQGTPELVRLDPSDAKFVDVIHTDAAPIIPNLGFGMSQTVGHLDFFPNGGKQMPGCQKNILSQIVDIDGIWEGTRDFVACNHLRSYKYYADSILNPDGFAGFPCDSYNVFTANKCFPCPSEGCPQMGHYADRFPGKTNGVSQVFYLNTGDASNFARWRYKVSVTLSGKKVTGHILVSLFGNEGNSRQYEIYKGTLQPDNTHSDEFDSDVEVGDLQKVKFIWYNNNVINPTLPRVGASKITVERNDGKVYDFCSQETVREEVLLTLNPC
In words: Lipase inhibitory activity measurement (4-UMO fluorescence substrate). It counts as biochemical. The following applies: for IC50: 4-UMO substrate, pH 8.0, 25 degrees, 30 minutes of reaction; for lipase inhibitory activity (in words): summary of Table 1. The procedure: Lipase activity measurement was carried out by using oleic acid ester of fluorescence 4-methylumbelliferone (4-UMO) as a substrate, and measuring the fluorescence of 4-methylumbelliferone produced by reaction.
Substrate 4-UMO (Sigma) is prepared as 0.1 M solution in DMSO and diluted 1000 times with the buffer mentioned above. Similarly, lipase (porcine pancreatic lipase (Sigma)) is prepared as 400 U/ml solution in the buffer mentioned above and used in enzymatic measurement.
50 μl of 4-UMO buffer solution and 25 μl of distilled water (or sample solution) are placed in 96 well microplate and mixed at 25 degrees, followed by adding 25 μl of lipase buffer solution to start enzyme reaction. After 30 minutes of reaction, 100 μl of 0.1 M citric acid buffer (pH 4.2) was added to terminate the reaction, and fluorescence of 4-methylumbelliferone (excitation wavelength: 355 nm, fluorescence wavelength: 460 nm) produced by the reaction was measured with a fluorescence plate reader (Labsystems, Fluoroskan Asent CF).

In the case of `O=C(OC[C@H]1OC(OC(=O)c2cc(O)c(O)c(O)c2)[C@H](OC(=O)c2cc(O)c(O)c(O)c2)[C@@H](O)[C@@H]1OC(=O)c1cc(O)c(O)c(O)c1)c1cc(O)c(O)c(O)c1` (some centres unmarked) [1,2,4,6-tetra-GA-Glc (6), 1,2,4,6-tetragalloylglucose], the IC50 amounted to 203 nM and the “lipase inhibitory activity (in words)” value is reported as “showed lipase inhibitory activity”. With `O=C(OCC1OC(OC(=O)c2cc(O)c(O)c(O)c2)C(O)C(O)C1OC(=O)c1cc(O)c(O)c(O)c1)c1cc(O)c(O)c(O)c1` [1,4,6-tri-O-galloyl-D-glucose (4), 1,4,6-tri-O-galloyl-D-glucose], the IC50 amounted to 1230 nM and the “lipase inhibitory activity (in words)” value is “showed lipase inhibitory activity”.

As to `O=C(O)c1cc(O)c(O)c(O)c1` [Galli acid (1), Gallic acid, reference compound], the 50% inhibitory concentration (IC50) was over 50000 nM and the “lipase inhibitory activity (in words)” value is “showed no activity”.

For the compound `O=C(O[C@H]1[C@@H]2OC(=O)c3cc(O)c(O)c(O)c3-c3c(cc(O)c(O)c3O)C(=O)OC[C@H]2OC(O)[C@@H]1OC(=O)c1cc(O)c(O)c(O)c1)c1cc(O)c(O)c(O)c1` (some centres unmarked) [Tellimagrandin1 (7), Tellimagrandin 1], the IC50 stood at 127 nM and the “lipase inhibitory activity (in words)” value was “showed lipase inhibitory activity”.

As for `O=C(O[C@@H]1O[C@@H]2COC(=O)c3cc(O)c(O)c(O)c3-c3c(cc(O)c(O)c3O)C(=O)O[C@H]2[C@H](OC(=O)c2cc(O)c(O)c(O)c2)[C@H]1OC(=O)c1cc(O)c(O)c(O)c1)c1cc(O)c(O)c(O)c1` [Tellimagrandin2 (8), Tellimagrandin 2], it took 74 nM to reach half-maximal inhibition (IC50) and the “lipase inhibitory activity (in words)” value was “showed lipase inhibitory activity”. As for `O=C(O[C@@H]1O[C@@H]2COC(=O)c3cc(O)c(O)c(O)c3-c3c(cc(O)c(O)c3O)C(=O)O[C@H]2[C@H](O)[C@H]1O)c1cc(O)c(O)c(O)c1` [strictinin (5), strictinin], the IC50 worked out at 472 nM and the “lipase inhibitory activity (in words)” value was “showed lipase inhibitory activity”. `O=C(O[C@@H]1C[C@](O)(C(=O)O)C[C@@H](O)[C@H]1O)c1cc(O)c(O)c(O)c1` [theogallin (3), theogallin] came in with a half-maximal inhibitory concentration (IC50) of over 50000 nM. In turn, `O=C(O[C@@H]1O[C@H](CO)[C@@H](O)[C@H](O)[C@H]1O)c1cc(O)c(O)c(O)c1` [β-glucogallin (2), β-glucogallin] returned an IC50 of over 50000 nM.

(Values after patent US7754695B2, “Lipase inhibitors” (Suntory Holdings Limited, priority 2004, dated 2010).)
